Where a name gives a salt, the structure may show the parent alone.
Key:
[1] = molecular target: T1, proMMP13(1-268) (SEQ ID NO:7) (Homo sapiens, UniProt P45452); assay: ThermoFluor binding assay with proMMP13(1-268)
T1 construct: 6xHis (C); made in house; host or cells: HEK293 (transient, secreted)
Procedure: The ThermoFluor® (TF) assay is a 384-well plate-based binding assay that measures thermal stability of proteins (Biomol Screen 2001, 6, 429-40; Biochemistry 2005, 44, 5258-66). The experiments were carried out using instruments available from Johnson & Johnson Pharmaceutical Research & Development, LLC. TF dye used in all experiments was […] (1,8-ANS) (Invitrogen: A-47).
Compounds were arranged in a pre-dispensed plate (Greiner Bio-one: 781280), wherein compounds were serially diluted in 100% DMSO across 11 columns within a series. Columns 12 and 24 were used as DMSO reference and contained no compound. For multiple compound concentration-response experiments, the compound aliquots (50 nL) were robotically predispensed directly into black 384-well polypropylene PCR microplates (Abgene: TF-0384/k) using a Cartesian Hummingbird liquid handler (DigiLab, Holliston, Mass.). Following compound dispense, protein and dye solutions were added to achieve the final assay volume of 3 μL. The assay solutions were overlayed with 1 μL of silicone oil (Fluka, type DC 200: 85411) to prevent evaporation.
Assay plates were robotically loaded onto a thermostatically controlled PCR-type thermal block and then heated from 40 to 90° C. at a ramp-rate of 1° C./min for all experiments. Fluorescence was measured by continuous illumination with UV light (Hamamatsu LC6) supplied via fiber optics and filtered through a band-pass filter (380-400 nm; >60D cutoff). Fluorescence emission of the entire 384-well plate was detected by measuring light intensity using a CCD camera (Sensys, Roper Scientific) filtered to detect 500±25 nm, resulting in simultaneous and independent readings of all 384 wells. A single image with 20-sec exposure time was collected at each temperature, and the sum of the pixel intensity in a given area of the assay plate was recorded vs temperature and fit to standard equations to yield the Tm (J Biomol Screen 2001, 6, 429-40).
Thermodynamic parameters necessary for fitting compound binding for each proMMP were estimated by differential scanning calorimetry (DSC) and from ThermoFluor® data. The heat capacity of unfolding for each protein was estimated from the molecular weight and from ThermoFluor® dosing data.
ThermoFluor® with proMMP13(1-268) (SEQ ID NO: 7)
The proMMP13(1-268) (SEQ ID NO:7) protein sample preparations included a desalting buffer exchange step via a PD-10 gravity column (GE Healthcare). The desalting buffer exchange was performed prior to diluting the protein to the final assay concentration of 3.5 μM. The concentration of proMMP13(1-268) (SEQ ID NO:7) was estimated spectrophotometrically based on a calculated extinction coefficient of ε280=37000 M^−1 cm^−1, a calculated molecular weight of 30.8 kDa, and calculated pI of 5.33. ThermoFluor® reference conditions were defined as follows: 100 μg/mL proMMP13(1-268) (SEQ ID NO:7), 25 μM 1,8-ANS, pH 7.0 Buffer (50 mM HEPES pH 7.0, 100 mM NaCl, 0.001% Tween-20, 2.5 mM MgCl2, 300 μM CaCl2). The thermodynamic parameters for proMMP13(1-268) (SEQ ID NO:7) are as follows: Tm (° C.)=67 (+/−0.1), ΔUH(Tm)) (cal mol^−1)=107000(+/−5000), ΔUSTm (cal mol^−1 K^−1)=318, ΔUCp (cal mol^−1 K^−1)=2600.

[2] = molecular target: T2, proMMP9(67-444;ΔFnII) (SEQ ID NO:5) (Homo sapiens, UniProt P14780, DEL216-390); assay: ThermoFluor binding assay with proMMP9(67-444;ΔFnII)
T2 construct: start methionine (N); made in house; host or cells: E. coli BL21(DE3) RIL
T2 sequence (P14780 with tags, fused parts or gaps DEL216-390): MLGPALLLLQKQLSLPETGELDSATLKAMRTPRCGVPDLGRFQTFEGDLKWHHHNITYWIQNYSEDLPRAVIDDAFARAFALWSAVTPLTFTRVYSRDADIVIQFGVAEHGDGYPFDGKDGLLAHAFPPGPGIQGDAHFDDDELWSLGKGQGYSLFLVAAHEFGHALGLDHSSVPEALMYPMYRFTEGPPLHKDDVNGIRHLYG
Method in brief: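 Thermal shift of 3.5 μM proMMP9(67-444;ΔFnII), desalted beforehand, with 50 μM 1,8-ANS in 50 mM HEPES pH 7.0, 100 mM NaCl, 2.5 mM MgCl2, 300 μM CaCl2, 0.001% Tween-20. Heated 40–90 °C at 1 °C/min, fluorescence read at 500 nm; binding fitted from Tm shifts using DSC- and ThermoFluor-derived unfolding parameters.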

[3] = molecular target: T3, proMMP9(20-445;ΔFnII) (SEQ ID NO:6) (Homo sapiens, UniProt P14780, DEL216-390); assay: ThermoFluor binding assay with proMMP9(20-445;ΔFnII)
T3 construct: start methionine (N); made in house; host or cells: E. coli BL21(DE3) RIL
T3 sequence (P14780 with tags, fused parts or gaps DEL216-390): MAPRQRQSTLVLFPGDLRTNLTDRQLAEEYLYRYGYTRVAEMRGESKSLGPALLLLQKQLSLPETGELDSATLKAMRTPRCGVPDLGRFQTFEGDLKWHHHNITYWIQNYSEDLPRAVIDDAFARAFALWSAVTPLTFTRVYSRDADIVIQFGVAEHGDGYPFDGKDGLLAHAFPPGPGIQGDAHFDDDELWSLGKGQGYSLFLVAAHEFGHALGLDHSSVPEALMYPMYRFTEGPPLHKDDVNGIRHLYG
Method in brief: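 Protein thermal stability was measured with 2.8 μM proMMP9(20-445;ΔFnII) and 50 μM 1,8-ANS in 50 mM HEPES pH 7.0, 100 mM NaCl, 0.001% Tween-20, 2.5 mM MgCl2, 300 μM CaCl2, across serial compound dilutions. Samples were heated 40–90° C at 1° C/min with fluorescence read at 500 nm. Tm was fitted, and binding was derived from thermodynamic parameters obtained by DSC and ThermoFluor.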

[4] = molecular target: T4, full-length proMMP9(1-707) activation by catalytic MMP3 (Homo sapiens, UniProt P14780, R574P); assay: proMMP9/MMP3 P126 Activation Assay; assay type: biochemical
T4 construct: made in house; host or cells: proMMP9: HEK293 (secreted); MMP3: E. coli
T4 sequence (P14780 20-707 R574P): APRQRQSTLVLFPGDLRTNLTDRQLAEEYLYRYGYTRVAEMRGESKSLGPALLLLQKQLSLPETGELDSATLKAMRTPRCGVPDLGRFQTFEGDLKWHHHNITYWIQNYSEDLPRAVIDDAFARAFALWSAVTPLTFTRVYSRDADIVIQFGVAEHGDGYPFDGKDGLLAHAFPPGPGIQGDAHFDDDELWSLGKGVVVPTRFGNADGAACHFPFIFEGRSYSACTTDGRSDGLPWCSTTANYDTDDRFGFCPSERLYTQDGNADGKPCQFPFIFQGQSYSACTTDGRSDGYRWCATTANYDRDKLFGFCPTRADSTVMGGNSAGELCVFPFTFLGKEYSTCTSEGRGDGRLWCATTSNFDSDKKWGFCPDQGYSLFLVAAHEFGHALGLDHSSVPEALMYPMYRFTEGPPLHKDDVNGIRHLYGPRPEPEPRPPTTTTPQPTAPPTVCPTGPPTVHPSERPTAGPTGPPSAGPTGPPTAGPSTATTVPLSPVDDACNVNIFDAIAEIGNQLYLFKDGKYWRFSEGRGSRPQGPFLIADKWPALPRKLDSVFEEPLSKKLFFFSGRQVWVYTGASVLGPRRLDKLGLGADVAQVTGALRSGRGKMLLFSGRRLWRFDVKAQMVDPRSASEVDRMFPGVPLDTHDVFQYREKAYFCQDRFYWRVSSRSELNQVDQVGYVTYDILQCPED
Procedure: proMMP9/MMP3 P126 Activation Assay
The reaction volume was 50 μL. […] Reactivity of residual MMP3 towards P-126 substrate was minimal under these conditions.

## CC(C)Oc1ccc(C(=O)O)cc1Nc1nc2c(ccc3[nH]c(N)nc32)s1 [Example 10, 3-(7-Amino-6H-imidazo[4′,5′:3,4]benzo[2,1-d]thiazol-2-ylamino)-4-isopropoxy-benzoic acid.HCl]
[1]
  Kd: 0.71 µM
[2]
  Kd: 91 nM
[3]
  Kd: 940 nM
[4]
  IC50: 130 nM

## Nc1nc2c(ccc3sc(Nc4cccc(C(=O)O)c4)nc32)[nH]1 [Example 15, 3-(7-Amino-6H-imidazo[4′,5′:3,4]benzo[2,1-d]thiazol-2-ylamino)-benzoic acid.TFA]
[1]
  Kd: 33 µM
[2]
  Kd: 9900 nM
[3]
  Kd: > 95000 nM
[4]
  IC50: 3500 nM

## CC(C)Oc1ccc(F)cc1Nc1nc2c(ccc3c2ncn3C)s1 [Example 59, (5-Fluoro-2-isopropoxy-phenyl)-(6-methyl-6H-imidazo[4′,5′:3,4]-benzo[2,1-d]thiazol-2-yl)-amine.HCl]
[1]
  Kd: 3.2 µM
[2]
  Kd: 680 nM
[3]
  Kd: 2000 nM
[4]
  IC50: 450 nM

## CC(C)Oc1ccc(S(N)(=O)=O)cc1Nc1nc2c(ccc3c2ncn3C)s1 [Example 28, 4-Isopropoxy-3-(6-methyl-6H-imidazo[4′,5′:3,4]benzo[2,1-d]thiazol-2-ylamino)-benzenesulfonamide.HCl]
[1]
  Kd: 3.5 µM
[2]
  Kd: 2200 nM
[3]
  Kd: 880 nM
[4]
  IC50: 180 nM

## COc1ccc(C)cc1Nc1nc2c(ccc3c2ncn3C)s1 [Example 41, (2-Methoxy-5-methyl-phenyl)-(6-methyl-6H-imidazo[4′,5′:3,4]benzo[2,1-d]thiazol-2-yl)-amine.HCl]
[1]
  Kd: 7.7 µM
[2]
  Kd: 900 nM
[3]
  Kd: 4200 nM
[4]
  IC50: 720 nM

## CC(C)Oc1ccc(C(N)=O)cc1Nc1nc2c(ccc3[nH]c(N)nc32)s1 [Example 11, 3-(7-Amino-6H-imidazo[4′,5′:3,4]benzo[2,1-d]thiazol-2-ylamino)-4-isopropoxy-benzamide.HCl]
[1]
  Kd: 0.47 µM
[2]
  Kd: 720 nM
[3]
  Kd: 1300 nM
[4]
  IC50: 250 nM

## CCn1c(C)nc2ccc3sc(Nc4cc(C(N)=O)ccc4OC(C)C)nc3c21 [Example 35, 3-(8-Ethyl-7-methyl-8H-imidazo[4′,5′:3,4]benzo[2,1-d]thiazol-2-ylamino)-4-isopropoxy-benzamide.HCl]
[1]
  Kd: 0.43 µM
[2]
  Kd: 150 nM
[3]
  Kd: 55 nM
[4]
  IC50: 53 nM

## CC(C)Oc1ccc(C(N)=O)cc1Nc1nc2c(ccc3ncccc32)s1 [Example 91, 4-Isopropoxy-3-(thiazolo[4,5-f]quinolin-2-ylamino)-benzamide.TFA]
[1]
  Kd: 9 µM
[2]
  Kd: 2900 nM
[3]
  Kd: 950 nM
[4]
  IC50: 1300 nM

## CCn1c(C)nc2c3nc(Nc4cc(C(N)=O)ccc4OC(C)C)sc3ccc21 [Example 34, 3-(6-Ethyl-7-methyl-6H-imidazo[4′,5′:3,4]benzo[2,1-d]thiazol-2-ylamino)-4-isopropoxy-benzamide.HCl]
[1]
  Kd: 4 µM
[2]
  Kd: 140 nM
[3]
  Kd: 120 nM
[4]
  IC50: 110 nM

## CC(C)Oc1ccc(C(N)=O)cc1Nc1nc2c(ccc3[nH]c(=O)[nH]c32)s1 [Example 23, 4-Isopropoxy-3-(7-oxo-7,8-dihydro-6H-imidazo[4′,5′:3,4]benzo[2,1-d]thiazol-2-ylamino)-benzamide.TFA]
[1]
  Kd: 3 µM
[2]
  Kd: 970 nM
[3]
  Kd: 590 nM
[4]
  IC50: 840 nM

## COc1ccc(C(N)=O)cc1Nc1nc2c(s1)CCc1ncccc1-2 [Example 117, 3-(4,5-Dihydro-thiazolo[4,5-f]quinolin-2-ylamino)-4-methoxy-benzamide]
[1]
  Kd: 32 µM
[2]
  Kd: 3500 nM
[3]
  Kd: 8800 nM
[4]
  IC50: 6000 nM

## Cc1cc2ccc3sc(Nc4cc(C(N)=O)ccc4OC(C)C)nc3c2o1 [Example 38, 4-Isopropoxy-3-(7-methyl-8-oxa-3-thia-1-aza-as-indacen-2-ylamino)-benzamide.HCl]
[1]
  Kd: 1.4 µM
[2]
  Kd: 950 nM
[3]
  Kd: 1000 nM
[4]
  IC50: 1500 nM

## CCc1ccccc1Nc1nc2c(ccc3c2ncn3C)s1 [Example 62, (2-Ethyl-phenyl)-(6-methyl-6H-imidazo[4′,5′:3,4]benzo[2,1-d]thiazol-2-yl)-amine.HCl]
[1]
  Kd: 51 µM
[2]
  Kd: 1600 nM
[3]
  Kd: 3900 nM
[4]
  IC50: 1100 nM

## Cc1nc2c(ccc3sc(Nc4cc(C(=O)O)ccc4OC(C)C)nc32)[nH]1 [Example 20, 4-Isopropoxy-3-(7-methyl-6H-imidazo[4′,5′:3,4]-benzo[2,1-d]thiazol-2-ylamino)-benzoic acid.HCl]
[1]
  Kd: 1.9 µM
[2]
  Kd: 190 nM
[3]
  Kd: 1400 nM
[4]
  IC50: 240 nM

## CC(C)Oc1ccc(C(N)=O)cc1Nc1nc2c(ccc3[nH]c(N4CCN(C)CC4)nc32)s1 [Example 31, 4-Isopropoxy-3-[7-(4-methyl-piperazin-1-yl)-6H-imidazo[4′,5′:3,4]benzo[2,1-d]thiazol-2-ylamino]-benzamide.HCl]
[1]
  Kd: 2.3 µM
[2]
  Kd: 820 nM
[3]
  Kd: 930 nM
[4]
  IC50: 820 nM

## CC(C)Oc1ccc(C(N)=O)cc1Nc1nc2c(ccc3nc(N)sc32)s1 [Example 5, 3-(2-Amino-benzo[1,2-d;3,4-d′]bisthiazol-7-ylamino)-4-isopropoxy-benzamide.TFA]
[1]
  Kd: 0.73 µM
[2]
  Kd: 410 nM
[3]
  Kd: 320 nM
[4]
  IC50: 920 nM

## Cc1nc2c(s1)-c1nc(Nc3cc(C(N)=O)ccc3OC(C)C)sc1CC2 [Example 12, 4-Isopropoxy-3-(2-methyl-4,5-dihydro-benzo[1,2-d;3,4-d′]-bisthiazol-7-ylamino)-benzamide.TFA]
[1]
  Kd: 6.5 µM
[2]
  Kd: 3800 nM
[3]
  Kd: 1700 nM
[4]
  IC50: 1100 nM

## COc1ccccc1Nc1nc2c(ccc3nc(N)sc32)s1 [Example 2, N^7-(2-Methoxy-phenyl)-benzo[1,2-d;3,4-d′]-bisthiazole-2,7-diamine.TFA]
[1]
  Kd: 8.7 µM
[2]
  Kd: 410 nM
[3]
  Kd: 2200 nM
[4]
  IC50: 1300 nM
